Experimental data: paper PMC7179226, “Sulfonamide Inhibition Studies of the β-Class Carbonic Anhydrase CAS3 from the Filamentous Ascomycete Sordaria macrospora” (Molecules, 2020)

target: T1, CAS3 (Sordaria macrospora, UniProt F7VU04); assay: stopped-flow CO2 hydration inhibition assay; type: biochemical; settings: not given
T1 construct: gene SMAC_03179; primers imply N-terminus (M)MPVTNEE and C-terminus KTVRVV-LE-His6

`Cc1ccc(-c2cc(C(F)(F)F)nn2-c2ccc(S(N)(=O)=O)cc2)cc1` [CLX] and `NS(=O)(=O)c1cc2c(cc1Cl)NCNS2(=O)=O` [HCT] are within 1.5-fold of each other in Ki: 669 ± 29 nM for the first, 545 ± 41 nM for the second.

Compound `O=C1NS(=O)(=O)c2ccccc21` [SAC] has a Ki of 191 ± 12 nM.

same assay, conditions: read-out: KI* (nM) / CAS3 ^c / β

`CC(=O)N=c1sc(S(N)(=O)=O)nn1C` [MZA, methazolamide] and `Cn1nc(S(N)(=O)=O)sc1=N` [compound 14, deacetylated precursor of methazolamide] are within error of each other in Ki: 91 ± 6.2 nM for the first, 94 ± 4.1 nM for the second.

Compared with `NS(=O)(=O)c1ccc(S(=O)(=O)Nc2cccc3c(Cl)c[nH]c23)cc1` [IND], `Cc1onc(-c2ccccc2)c1-c1ccc(S(N)(=O)=O)cc1` [VLX] is 8.8-fold higher in Ki: 94 ± 4.6 nM for the first, 831 ± 38 nM for the second.

Going from `CC1(C)O[C@@H]2[C@@H](CO[C@@]3(COS(N)(=O)=O)OC(C)(C)O[C@@H]23)O1` [TPM] to `CCN[C@H]1CN(CCCOC)S(=O)(=O)c2sc(S(N)(=O)=O)cc21` [BRZ, brinzolamide], the Ki falls from 363 ± 23 nM to 61 ± 1.4 nM (6-fold).

First: Nc1nnc(S(N)(=O)=O)s1 [compound 13, deacetylated precursor of acetazolamide]
Second: NS(=O)(=O)c1nnc(NS(=O)(=O)c2ccccc2)s1 [BZA, benzolamide]
The Ki of the first is 1.6-fold higher: 88 ± 2.9 nM for the first, 54 ± 0.9 nM for the second. The second binds more tightly here.

Compared with `NS(=O)(=O)c1ccc(N2CCCCS2(=O)=O)cc1` [SLT, sulthiame], `NS(=O)(=O)c1ccc(CO)cc1` [compound 16, 4-hydroxymethyl-benzenesulfonamide] is 59-fold lower in Ki: 4840 ± 257 nM for the first, 82 ± 3.7 nM for the second.

First: NS(=O)(=O)Cc1noc2ccccc12 [ZNS]
Second: NS(=O)(=O)c1cc(Cl)c(Cl)c(S(N)(=O)=O)c1 [DCP, dichlorophnamide]
The Ki of the first is 9.7-fold higher: 710 ± 40 nM for the first, 73 ± 3 nM for the second. The second binds more tightly here.

`CCN1CCCC1CNC(=O)c1cc(S(N)(=O)=O)ccc1OC` (centres unmarked) [SLP] showed a Ki of 493 ± 27 nM.

target: T2, CAS3 (Sordaria macrospora, UniProt F7VU04); assay: biochemical; settings: read-out: KI* (nM) / CAS3 ^c / β
T2 construct: gene SMAC_03179; primers imply N-terminus (M)MPVTNEE and C-terminus KTVRVV-LE-His6
T2 sequence (F7VU04 1-174): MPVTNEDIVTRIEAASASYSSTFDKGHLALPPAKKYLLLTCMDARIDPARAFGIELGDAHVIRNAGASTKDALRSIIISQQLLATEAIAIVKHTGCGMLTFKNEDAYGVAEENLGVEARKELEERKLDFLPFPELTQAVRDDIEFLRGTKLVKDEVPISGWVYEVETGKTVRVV
Experimental: An Applied Photophysics stopped-flow instrument was used for assaying the CA catalyzed CO2 hydration activity. […] The initial rates of the CA-catalyzed CO2 hydration were followed for a period of 10–100 s for each assay. […] For each measurement, six traces of the initial 5%–10% of the reaction were used for determining the initial velocity. Then, 10-fold decreasing dilution of inhibitor solutions, ranging from 1 nM and 100 µM were employed for determining the inhibition constants. Uncatalyzed rates were determined in the same manner and subtracted from total observed rates. Stock solutions of inhibitor (0.1 mM) were prepared in distilled deionized water, and dilutions up to 1 nM were done thereafter with the assay buffer. Inhibitor and enzyme solutions were preincubated together for 15 min at room temperature before to assay for allowing for the formation of E–I complexes. The inhibition constants were obtained by non-linear least-squares methods using the Cheng–Prusoff equation, and they represent the mean from at least three different determinations. The human isoforms hCA I, II were assayed in the same conditions as above except that the working pH was 7.4 HEPES buffer with phenol red as an indicator [21, 22].

First: NS(=O)(=O)c1cccc(S(N)(=O)=O)c1 [compound 3]
Second: Nc1ccc(S(N)(=O)=O)cc1Br [compound 9]
The Ki of the first is 8.6-fold lower: 83 ± 6 nM for the first, 712 ± 28 nM for the second.

`Nc1ccc(S(=O)(=O)NCc2ccc(S(N)(=O)=O)cc2)cc1` [compound 23] and `Nc1ccc(S(=O)(=O)NCCc2ccc(S(N)(=O)=O)cc2)cc1` [compound 24] are within 1.5-fold of each other in Ki: 89 ± 3.4 nM for the first, 84 ± 1.5 nM for the second.

First: NCc1ccc(S(N)(=O)=O)cc1 [compound 5]
Second: NCCc1ccc(S(N)(=O)=O)cc1 [compound 6]
The Ki of the first is 1.6-fold higher: 726 ± 30 nM for the first, 441 ± 14 nM for the second. The second binds more tightly here.

First: Nc1cc(C(F)(F)F)c(S(N)(=O)=O)cc1S(N)(=O)=O [compound 11]
Second: Nc1cc(Cl)c(S(N)(=O)=O)cc1S(N)(=O)=O [compound 12]
The Ki of the first is 2.6-fold higher: 235 ± 16 nM for the first, 90 ± 5.7 nM for the second.

Going from `NS(=O)(=O)c1ccc(C(=O)O)cc1` [compound 18] to `NS(=O)(=O)c1ccc(O)cc1` [compound 15], the Ki rises from 226 ± 13 nM to 605 ± 23 nM (2.7-fold). The first binds more tightly here.

`Nc1ccc(S(=O)(=O)Nc2nnc(S(N)(=O)=O)s2)cc1` [compound 20] and `Nc1ccc(S(=O)(=O)Nc2ccc(S(N)(=O)=O)cc2)cc1` [compound 22] are the same in Ki: 85 ± 2.7 nM for the first, 85 ± 2.6 nM for the second.

`NS(=O)(=O)c1ccc(CCO)cc1` [compound 17] and `Cc1ccc(S(N)(=O)=O)cc1` [compound 4] are within 1.5-fold of each other in Ki: 507 ± 26 nM for the first, 560 ± 21 nM for the second.

Compared with `NS(=O)(=O)c1cc(Cl)cc(Cl)c1O` [compound 10], `Nc1ccc(S(N)(=O)=O)cc1Cl` [compound 8] is 5.9-fold higher in Ki: 350 ± 13 nM for the first, 2080 ± 61 nM for the second. The first binds more tightly here.

Going from `Nc1ccc(S(N)(=O)=O)cc1F` [compound 7] to `Nc1nccc(Nc2ccc(S(N)(=O)=O)cc2)n1` [compound 19], the Ki falls from 585 ± 23 nM to 91 ± 4.4 nM (6.4-fold).

For `NS(=O)(=O)c1ccc(CCNS(=O)(=O)c2ccc([N+](=O)[O-])cc2CO)cc1` [compound 21], the Ki was 95 ± 3.9 nM.
